Blank lines part the entries; values can stand above or below the compound they belong to.
Tests used:
[1] = tested on: npc1^−/− mice; details: subcutaneous injection, 4.0 mg/kg of body weight; cited from earlier work
[2] = room temperature, in water; cited from earlier work
[3] = within 24 h; cited from earlier work
[4] = tested on: Niemann-Pick C1-deficient (npc1−/−) fibroblasts; experiment: Cholesterol mobilization (filipin staining) in npc1−/− fibroblasts; type: cell-based; details: 6 h after treatment, total β-CD concentration 25 μM
Description: PR carrying an increasing percentage of SBE-β-CD were administered to Niemann-Pick C1-deficient (npc1−/−) fibroblasts to examine their ability to mobilize cholesterol from sites of aberrant accumulation. Each PR family member, generated with a 0%, 30%, 50%, 60%, or 100% SBE-β-CD feed ratio, was administered at a total β-CD concentration of 25 μM and compared to administration of 25 μM SBE-β-CD or HP-β-CD monomers as controls. Comparisons were made at equivalent β-CD concentrations in these experiments, such that each PR construct carrying 10 copies of β-CD was administered at a 10-fold lower molar concentration than for the β-CD monomer controls, so that any apparent differences in cholesterol mobilization could be attributed to the PR agent (a type of β-CD prodrug) rather than the total drug concentration added to the cells.
HP-β-CD and SBE-β-CD monomers decreased the average filipin staining in npc1−/− fibroblasts to approximately 75% of the untreated control levels after 6 h. PR comprised of 100% HP-β-CD and 100% SBE-β-CD performed equivalently, each decreasing filipin staining to ˜78% of control. PRs carrying 30:70 SBE-β-CD:HP-β-CD ratio decreased fluorescence to ˜65% of the untreated group.

[5] = tested on: J774 macrophage cells; experiment: Cellular uptake by MR relaxation of lysed cells; type: cell-based; details: 0.1 mM Gd, 12 h at 37° C., serum free media, 7 T
Description: Cellular Uptake Studies. Since macromolecular constructs such as polyrotaxanes can trigger the innate immune system (monocytes, macrophages, dendritic cells) in vivo, their uptake of the polyrotaxane contrast was evaluated by macrophages using the MR imaging modality. In addition, one can take advantage of the biological properties of these materials to image macrophages in human diseases including cancer, atherosclerosis, myocardial infarction, diabetes and other conditions. Macrophages are known to play an important role in host system defense leading to the detrimental fate of most nanomaterials. […] Based on these reports, cellular uptake in J774 macrophages of the polyrotaxane contrast agents was assessed. […] T1 and T2 values from the lysed cells contained in 300 μL eppendorf tubes were measured using an inversion recovery sequence at 7 T and the inverse of spin-lattice (1/T1) and spin-spin (1/T2) relaxation times were evaluated. […]
Cellular Uptake Studies. […] These cells were then collected and analyzed using reverse spin echo scanning on Bruker 7 T Biospect small animal scanner (Bindley Bioscience Center, West Lafayette, Ind.). The relaxations T1 and T2 values were collected from samples images recorded from the cells contained in 300 μL plastic containers using the scanning conditions similarly to those employed for In vitro imaging of polyrotaxane solutions.

[6] = In vivo MRI contrast enhancement in Balb/C mice; details: i.v., 3D T1-weighted MRI
Description: In Vivo MRI Contrast Enhancement of Gd^3+—HP-β-CD/SBE-β-CD-PRs. To investigate the MR contrast enhancement and the circulation fate in vivo of the polyrotaxanes, 3D T1-weighted MR images of Balb/C mice after intra-venous injection were acquired with 7 T Bruker small animal scanner before injection and 10, 20, 35, 50, and 60 min post injection. The tissue contrast enhancement of the compounds has different fates dependent on the threading efficiency, molecular weight, size and surface charge of each contrast agent. […] As expected, DOTAREM® was completely eliminated within 20 min, a typical trend commonly observed for small contrast agents.
To quantify the contrast enhancements, the contrast signal-to-noise ratio (CNR) was calculated from regions of interest (ROIs) carefully drawn in the cross-section images of heart, liver, and kidney obtained from the 2D T1-weighted scans. There was insignificant signal enhancement in all these tissues (FIG. 4). […]
In Vivo MR Imaging. […] To quantify the changes in tissues signal intensity, regions of interest (ROIs) were drawn in images of different organs obtained from the 2D T1-weighted scans and ParaVision software was used to evaluate the mean intensities. The contrast-to-noise ratio (CNR) was calculated for the tissues using the following equation: […]

[7] = Fixed-field relaxivity measurement at 7 T; type: physicochemical; details: 7 T Bruker BioSpec; 23° C.; 0.05 to 1.0 mM Gd in water
Description: A fixed field measurement of relaxivity was also performed on aqueous solutions of the polyrotaxane contrast agents in the range of 0.05 to 1.0 mM using a 7 T ([…]) Bruker BioSpec scanner at 23° C. The relaxivity r1 and r2 were determined by plotting the inverse longitudinal (1/T1) and transversal (1/T2) relaxation times, respectively, as a function of Gd concentrations.
Relaxivity Measurements. The longitudinal and transversal relaxation rate of the contrast agents and J774 macrophage cells were measured using a 7 T Bruker BioSpec scanner (Bindley Bioscience Center, West Lafayette, Ind.) 47/30 equipped with a Bruker Biospin MRI GmbH volume coil, 86 mm ID, operating at 300 MHz at 23° C. (RES 300 1 H 112/086 QNS TO AD). […] T1 and T2 values were measured using inversion recovery sequence and multi-slice-multi-echo (MSME) sequence respectively. […] The parameters used are as followed. r1: Repetition times, TE=50.72, 100, 350, 750, 1250, 2500, 3500, and 5000 ms, echo time, TE=22.22 ms, FOV=10×10 mm^2, matrix=128×128, slice thickness=1.0 mm, acquisition number=1. r2: TR=2000 ms, TE=15, 30, 45, 60, 75, 90, 105 ms, FOV=20×20 mm^2, matrix=128×128, slice thickness=1 mm, acquisition number=1. r1 and r2 values were determined by as the slopes of the lines for the plot of 1/T1 and 1/T2 against Gd concentrations, respectively, using the same ROI.

Compound: 2-Hydroxypropyl-β-cyclodextrin [HP-β-CD]
effect on survival, hepatopathology, neuropathology [1]: improvement in their survival, hepatopathology, and neuropathology
water solubility [2]: 650 mg/mL
fraction cleared from the bloodstream [3]: > 90%
filipin staining, % of untreated control [4]: approximately 75%

Compound: 4-sulfobutylether-β-cyclodextrin [SBE-β-CD]
filipin staining, % of untreated control [4]: approximately 75%

time to complete elimination [6]: ≤ 20 min
Compound: CNC[C@H](O)[C@@H](O)[C@H](O)[C@H](O)CO.O=C([O-])CN1CCN(CC(=O)[O-])CCN(CC(=O)O)CCN(CC(=O)[O-])CC1.[Gd+3] [DOTAREM]
cellular uptake (1/T1, 1/T2 of lysed cells) [5]: did not show any endocytosis
r1 (mM^−1s^−1) (1/T1) [7]: 3.8 mM⁻¹ s⁻¹

Source: patent publication US11434330B2, “Polyrotaxanes bearing mixed cyclodextrin species and uses thereof” (Purdue Research Foundation, priority 2015, dated 2022)
